Structures are written as SMILES.

Here are results for 1 molecule from paper PMC11628855 (Acta Pharmaceutica Sinica. B, 2024).

The assay concerns the target T1, GacS (12–166)-His (Pseudomonas aeruginosa, UniProt G3XD98).
T1 sequence (G3XD98 12-166): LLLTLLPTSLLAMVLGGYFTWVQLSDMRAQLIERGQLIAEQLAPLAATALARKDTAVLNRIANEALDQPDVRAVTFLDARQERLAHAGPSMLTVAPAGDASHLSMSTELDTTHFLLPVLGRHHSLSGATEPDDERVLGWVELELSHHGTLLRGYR
The assay is described as follows: microscale thermophoresis. Type of assay: binding. In general terms: In MST a laser heats a spot of the sample, and binding alters the fluorescence response.

In general, Kd refers to the constant that tells how readily two partners part at equilibrium. With `CCCCCCNC(=O)CNc1nc2ccc(OC)cc2s1` [SN12, N-Hexyl-2-((6-methoxybenzo[d]thiazol-2-yl)amino)acetamide], the Kd turned out to be 12.8 ± 0.68 µM.
